Legend:
B. subtilis 168 [1] = assay: fitness (endpoint OD595 vs no drug) (fraction); higher = more growth
Procedure, shortened: (§1)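 Bacterial growth was followed in 384-well plates seeded at OD595 0.01, with 30 µl per well, or 55 µl for S. pneumoniae, in TSB, LB Lennox or CY at 37 °C. OD595 was read every 30 min for 14 h, and each reading had the first reading subtracted as background. Fitness is the background-corrected optical density at entry into stationary phase divided by the robust mean of the no-drug control wells. This ratio is capped at 1.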

S. aureus DSM 20231 [2] = assay: as above
Procedure, shortened: as §1

S. pneumoniae D39V [3] = assay: as above
Procedure, shortened: as §1

S. aureus Newman [4] = assay: as above
Procedure, shortened: as §1

B. subtilis 168 [5] = assay: Bliss interaction score (quartile over a dose matrix) (fitness difference); higher = more antagonism (negative = synergy)
Procedure, shortened: (§2)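 The Bliss score takes observed fitness and subtracts the expected fitness, calculated as a product of single-drug fitness values. Those single-drug values were inferred from the combination data. Fitness is OD595 at entry into stationary phase divided by the plate's robust no-drug mean, capped at 1, and the score is summarised by quartiles across technical, biological and donor/recipient replicates.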

S. aureus DSM 20231 [6] = assay: as above
Procedure, shortened: as §2

S. pneumoniae D39V [7] = assay: as above
Procedure, shortened: as §2

S. aureus Newman [8] = assay: as above
Procedure, shortened: as §2
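Throughout, for Bliss interaction score (quartile over a dose matrix): first quartile when negative (synergy) and third quartile when positive (antagonism).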

CO/N=C(\C(=O)N[C@@H]1C(=O)N2C(C(=O)O)=C(COC(C)=O)CS[C@H]12)c1csc(N)n1 [Cefotaxime] + Cc1cc(NS(=O)(=O)c2ccc(N)cc2)no1 [Sulfamethoxazol]
fitness, one replicate
Conditions | partner 0.5 µg/mL | partner 1 µg/mL | partner 2 µg/mL | partner 4 µg/mL | partner 8 µg/mL
B. subtilis 168 [1], first compound 0.00775 µg/mL | – | 0.802 | 0.77 | 0.757 | –
B. subtilis 168 [1], first compound 0.0155 µg/mL | – | 0.719 | 0.638 | 0.6 | –
B. subtilis 168 [1], first compound 0.031 µg/mL | – | 0.552 | 0.513 | 0.475 | –
B. subtilis 168 [1], first compound 0.0625 µg/mL | 0.664 | 0.494 | 0.438 | – | –
B. subtilis 168 [1], first compound 0.125 µg/mL | 0.395 | 0.402 | 0.275 | – | –
B. subtilis 168 [1], first compound 0.25 µg/mL | 0.325 | 0.0239 | 0.201 | – | –
S. aureus DSM 20231 [2], first compound 0.039 µg/mL | – | 0.724 | 0.758 | 0.714 | –
S. aureus Newman [4], first compound 0.039 µg/mL | – | 0.86 | – | – | 0.922
S. aureus Newman [4], first compound 0.078 µg/mL | – | – | – | – | 0.877
S. aureus Newman [4], first compound 0.156 µg/mL | – | – | – | – | 0.823
S. aureus Newman [4], first compound 0.312 µg/mL | – | – | – | – | 0.588
S. aureus Newman [4], first compound 0.625 µg/mL | – | 0.0508 | 0.0123 | 0.0053 | –
S. aureus Newman [4], first compound 1.25 µg/mL | – | 0.0193 | 0.0269 | 0.0043 | –
S. aureus Newman [4], first compound 2.5 µg/mL | – | 0.0252 | 0.0046 | 0.0076 | –

fitness
Conditions | partner 1 µg/mL | partner 2 µg/mL | partner 4 µg/mL
B. subtilis 168 [1], first compound 0.5 µg/mL | 0.221 | 0.187 | 0.211
B. subtilis 168 [1], first compound 1 µg/mL | 0.115 | 0.0739 | 0.0877
B. subtilis 168 [1], first compound 2 µg/mL | 0.11 | 0.0944 | 0.0802
S. aureus DSM 20231 [2], first compound 0.078 µg/mL | 0.737 | 0.735 | 0.74
S. aureus DSM 20231 [2], first compound 0.156 µg/mL | 0.681 | 0.686 | 0.687
S. aureus DSM 20231 [2], first compound 0.312 µg/mL | 0.619 | 0.605 | 0.631
S. aureus Newman [4], first compound 0.039 µg/mL | – | 0.944 | 0.886
S. aureus Newman [4], first compound 0.078 µg/mL | 0.776 | 0.821 | 0.833
S. aureus Newman [4], first compound 0.156 µg/mL | 0.687 | 0.752 | 0.748
S. aureus Newman [4], first compound 0.312 µg/mL | 0.408 | 0.535 | 0.547
S. pneumoniae D39V [3], first compound 0.0018 µg/mL | 0.945 | 0.969 | 0.913
S. pneumoniae D39V [3], first compound 0.0035 µg/mL | 0.984 | 0.955 | 0.943
S. pneumoniae D39V [3], first compound 0.007 µg/mL | 0.894 | 0.91 | 0.888

Conditions | Bliss interaction score
B. subtilis 168 [5] | 0.054
S. aureus DSM 20231 [6] | 0.046
S. aureus Newman [8] | 0.0672
S. pneumoniae D39V [7] | 0.0301

From the supplement of paper PMC10627819
